Assay results from ChEMBL document CHEMBL4043239, “Discovery and optimization of oxadiazole-based FLAP inhibitors” (Bioorg Med Chem Lett, 2017).
Converted amounts (≈) assume the structure as drawn.

Experiments:
[1] = Aqueous kinetic solubility of the compound at pH 7.4; assay type: physicochemical; details: for solubility kinetic: aqueous, read-out: Kinetic_solubility; for Kinetic_solubility: buffer
[2] = molecular target: T1, Arachidonate 5-lipoxygenase-activating protein (Homo sapiens, UniProt P20292); assay: Displacement of [125I]-L-691831 from human FLAP expressed in Sf9 cell membranes after 2 hrs by Topcount method
T1 sequence (P20292 whole entry): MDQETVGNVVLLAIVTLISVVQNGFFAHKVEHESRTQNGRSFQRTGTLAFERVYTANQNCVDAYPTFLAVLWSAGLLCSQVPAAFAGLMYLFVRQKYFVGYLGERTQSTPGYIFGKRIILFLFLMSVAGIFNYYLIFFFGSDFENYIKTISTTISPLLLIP

[3] = Aqueous equilibrium solubility in citric acid/disodium phosphate buffer at pH 6.8 at 1 uM after 24 hrs by HPLC method; assay type: physicochemical; details: for solubility thermodynamic at 24 h, 1 µM: citric acid/disodium phosphate buffer, pH 6.8; for solubility: buffer, pH 6.8, 24 h, 1 µM
[4] = molecular target: T1, Arachidonate 5-lipoxygenase-activating protein; assay: Inhibition of FLAP in calcimycin-stimulated human whole blood assessed as reduction in LTB4 production pretreated for 15 mins followed by calcimycin addition after 30 mins by ELISA
[5] = Stability in human liver microsomes at 1 uM pretreated for 10 mins followed by NADPH addition after 60 mins by LC/MS analysis relative to hepatic blood flow; assay type: ADME, microsome; details: read-out: Stability
[6] = molecular target: T2, hERG (KCNH2) (Homo sapiens, UniProt Q12809); assay: Inhibition of human ERG expressed in CHO cells at 14 uM at -70mV holding potential measured after 300 secs by IonWorks electrophysiology method relative to control; assay type: cell-based; details: CHO cells expressing human ERG
[7] = molecular target: T3, Arachidonate 5-lipoxygenase-activating protein (Homo sapiens) (UniProt P20292); assay: Ratio of IC50 for FLAP in calcimycin-stimulated human whole blood to IC50 for displacement of [125I]-L-691831 from human FLAP expressed in Sf9 cell membranes
T3 sequence (whole entry): T1 sequence (P20292 whole entry)

[8] = molecular target: T2, hERG (KCNH2); assay: Inhibition of human ERG expressed in CHO cells at 11 uM at -70mV holding potential measured after 300 secs by IonWorks electrophysiology method relative to control; assay type: cell-based; details: CHO cells expressing human ERG
[9] = molecular target: T2, hERG (KCNH2); assay: Inhibition of human ERG expressed in CHO cells at 30 uM at -70mV holding potential measured after 300 secs by IonWorks electrophysiology method relative to control; assay type: cell-based; details: CHO cells expressing human ERG
[10] = Clearance in human hepatocytes at 1 uM measured after 1 hr by LC/MS analysis relative to hepatic blood flow; assay type: ADME, cell-based, Hepatocyte

T2 sequence (Q12809 whole entry): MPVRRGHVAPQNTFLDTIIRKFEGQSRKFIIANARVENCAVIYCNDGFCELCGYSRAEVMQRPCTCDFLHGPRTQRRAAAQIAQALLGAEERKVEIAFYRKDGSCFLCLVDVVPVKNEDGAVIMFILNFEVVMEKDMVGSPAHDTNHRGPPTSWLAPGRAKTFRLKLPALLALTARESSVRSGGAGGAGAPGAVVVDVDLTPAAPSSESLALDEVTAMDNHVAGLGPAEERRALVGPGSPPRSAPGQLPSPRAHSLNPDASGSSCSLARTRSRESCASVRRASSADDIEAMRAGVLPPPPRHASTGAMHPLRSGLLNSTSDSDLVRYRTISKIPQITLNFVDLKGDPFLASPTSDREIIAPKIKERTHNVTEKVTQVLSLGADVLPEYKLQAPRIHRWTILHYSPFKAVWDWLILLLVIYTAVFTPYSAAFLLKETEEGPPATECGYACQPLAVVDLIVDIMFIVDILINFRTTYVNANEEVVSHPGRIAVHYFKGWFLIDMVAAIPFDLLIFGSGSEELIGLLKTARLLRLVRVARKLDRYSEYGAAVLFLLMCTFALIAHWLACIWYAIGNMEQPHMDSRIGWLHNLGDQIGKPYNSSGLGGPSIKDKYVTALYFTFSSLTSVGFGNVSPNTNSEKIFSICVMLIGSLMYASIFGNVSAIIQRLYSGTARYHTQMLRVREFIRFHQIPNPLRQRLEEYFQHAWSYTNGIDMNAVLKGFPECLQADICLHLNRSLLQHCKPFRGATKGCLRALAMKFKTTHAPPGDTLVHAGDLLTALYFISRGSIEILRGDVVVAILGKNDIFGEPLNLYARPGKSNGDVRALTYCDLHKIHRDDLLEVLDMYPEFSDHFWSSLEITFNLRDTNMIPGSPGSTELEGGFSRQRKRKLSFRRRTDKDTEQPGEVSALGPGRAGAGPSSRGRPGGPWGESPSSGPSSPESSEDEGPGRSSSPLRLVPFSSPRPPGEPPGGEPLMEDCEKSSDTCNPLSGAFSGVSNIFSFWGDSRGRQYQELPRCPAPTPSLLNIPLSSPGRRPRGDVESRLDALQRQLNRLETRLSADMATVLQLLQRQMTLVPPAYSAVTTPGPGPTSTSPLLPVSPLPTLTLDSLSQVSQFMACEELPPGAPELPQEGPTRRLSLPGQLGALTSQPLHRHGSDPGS

| Compound | solubility kinetic [1] [µg/mL] | IC50 [2] [nM] | IC50 [4] [nM] | hepatic extraction ratio at 1 h, 1 µM [5] | further results |
| --- | --- | --- | --- | --- | --- |
| Cc1cc(-c2nc(C3(c4ccc(-c5cnc(N)nc5)nc4)CCC3)no2)[nH]n1 | > 37 |  | 164 |  |  |
| CC(C)(O)CN1CCN(c2nc([C@@](C)(c3ccc(-c4cnc(N)nc4)cc3)C3CC3)no2)CC1 |  | 53 | 99 | 0.36 | inhibition at 5 min, 14 µM [6]: 26%; solubility [3]: Soluble; Kinetic_solubility [1]: Soluble |
| Nc1ncc(-c2ccc(C3(c4noc(N5CCCC5)n4)CCC3)cc2)cn1 | 16 (≈ 44.1 µM) |  | 467 |  | Ratio IC50 [7]: 56 |
| CC(C)(C#N)n1cc(-c2nc(C3(c4ccc(-c5cnc(N)nc5)nc4)CCC3)no2)cn1 | 2 (≈ 4.68 µM) |  | 94 |  |  |
| C[C@@](c1ccc(-c2cnc(N)nc2)nc1)(c1noc(-c2cnn(C3COC3)c2)n1)C1CC1 |  | 1.5 | 12 | 0.45 | solubility [3]: Soluble; Kinetic_solubility [1]: Soluble |
| COCCn1cc(-c2nc(C3(c4ccc(-c5cnc(N)nc5)cc4)CCC3)no2)cn1 | > 41 |  |  |  |  |
| Cc1cc(-c2nc(C3(c4ccc(-c5cnc(N)nc5)cc4)CCC3)no2)[nH]n1 | 3 (≈ 8.03 µM) |  | 80 |  |  |
| Cn1cc(-c2nc(C3(c4ccc(-c5cnc(N)nc5)nc4)CCC3)no2)cn1 | 24 (≈ 64.1 µM) |  | 270 | 0.19 | inhibition at 5 min, 11 µM [8]: 11% |
| Nc1ncc(-c2ccc(C3(c4noc(N5CCN(CC6CCCO6)CC5)n4)CCC3)cc2)cn1 (stereo not given) | 26 (≈ 56.3 µM) | 92 | 182 | 0.49 | Ratio IC50 [7]: 2 |
| Nc1ncc(-c2ccc(C3(c4noc(-c5cnn(C6COC6)c5)n4)CCC3)cc2)cn1 | > 41 |  |  |  | inhibition at 5 min, 11 µM [8]: 43% |
| Nc1ncc(-c2ccc(C3(c4noc(N5CCC(O)CC5)n4)CCC3)cn2)cn1 |  |  | 595 |  | inhibition at 5 min, 30 µM [9]: 51% |
| CN(C)c1nc(C2(c3ccc(-c4cnc(N)nc4)nc3)CCC2)no1 |  |  | 2600 |  |  |
| CN(C)c1nc(C2(c3ccc(-c4cnc(N)nc4)cc3)CCC2)no1 | 1.9 (≈ 5.65 µM) |  |  |  |  |
| Nc1ncc(-c2ccc(C3(c4noc(N5CCCC5)n4)CCC3)cn2)cn1 |  |  | 917 |  |  |
| N#CCCn1cc(-c2nc(C3(c4ccc(-c5cnc(N)nc5)cc4)CCC3)no2)cn1 | 17 (≈ 41.2 µM) | 1 | 37 |  |  |
| CC(C)(C)NC(=O)Cn1cc(-c2nc(C3(c4ccc(-c5cnc(N)nc5)nc4)CCC3)no2)cn1 | 26 (≈ 54.9 µM) |  | 195 |  |  |
| CCn1cc(-c2nc(C3(c4ccc(-c5cnc(N)nc5)nc4)CCC3)no2)cn1 | > 38 |  | 192 |  |  |
| CC(C)(C)NC(=O)Cn1cc(-c2nc(C3(c4ccc(-c5cnc(N)nc5)cc4)CCC3)no2)cn1 | 22 (≈ 46.6 µM) |  |  |  |  |
| Cc1cc(-c2nc(C3(c4ccc(-c5cnc(N)nc5)cn4)CCC3)no2)[nH]n1 | > 37 |  | 342 |  |  |
| N#CCCn1cc(-c2nc(C3(c4ccc(-c5cnc(N)nc5)nc4)CCC3)no2)cn1 | > 40 | 11 | 85 |  | solubility thermodynamic at 24 h, 1 µM [3]: 9 µg/mL (≈ 21.8 µM) |
| Nc1ncc(-c2ccc(C3(c4noc(N5CC[C@H](O)C5)n4)CCC3)cc2)cn1 | > 37 |  | 202 | < 0.24 | Ratio IC50 [7]: 6 |
| CC1(O)CCN(c2nc([C@@](C)(c3ccc(-c4cnc(N)nc4)nc3)C3CC3)no2)CC1 |  | 97 | 115 |  | inhibition at 5 min, 30 µM [9]: 17% |
| Cn1cc(-c2nc(C3(c4ccc(-c5cnc(N)nc5)cc4)CCC3)no2)cn1 | 14 (≈ 37.5 µM) |  |  |  | inhibition at 5 min, 11 µM [8]: 25% |
| CC(C)(O)Cn1cc(-c2nc(C3(c4ccc(-c5cnc(N)nc5)nc4)CCC3)no2)cn1 | > 43 |  | 124 | < 0.24 | hepatic extraction ratio at 1 h, 1 µM [10]: 0.5; inhibition at 5 min, 11 µM [8]: < 10%; solubility thermodynamic at 24 h, 1 µM [3]: 45 µg/mL (≈ 104 µM) |
| CN(C)C(=O)Cn1cc(-c2nc([C@@](C)(c3ccc(-c4cnc(N)nc4)nc3)C3CC3)no2)cn1 |  | 2.9 | 48 | 0.67 | solubility [3]: Soluble; Kinetic_solubility [1]: Soluble |
| CC(C)OC1CCN(c2nc(C3(c4ccc(-c5cnc(N)nc5)cc4)CCC3)no2)CC1 | 16 (≈ 36.8 µM) | 48 | 174 | 0.37 | inhibition at 5 min, 14 µM [6]: 85% |
| CN(C(=O)Cn1cc(-c2nc(C3(c4ccc(-c5cnc(N)nc5)cc4)CCC3)no2)cn1)C(C)(C)C | 2 (≈ 4.11 µM) |  |  |  |  |

More lines, main results first:

| solubility kinetic [1] [µg/mL] | IC50 [2] [nM] | IC50 [4] [nM] | hepatic extraction ratio at 1 h, 1 µM [5] | Compound | further results |
| --- | --- | --- | --- | --- | --- |
| 22 (≈ 71.3 µM) |  |  |  | Nc1ncc(-c2ccc(C3(c4noc(N)n4)CCC3)cc2)cn1 |  |
|  | 16 | 33 | < 0.3 | CC(C)[C@](C)(c1ccc(-c2cnc(N)nc2)nc1)c1noc(-c2cnn(C)c2)n1 | solubility thermodynamic at 24 h, 1 µM [3]: 4 µg/mL (≈ 10.2 µM); Kinetic_solubility [1]: Soluble |
| > 43 |  | 155 |  | CC(C)(CO)n1cc(-c2nc(C3(c4ccc(-c5cnc(N)nc5)cc4)CCC3)no2)cn1 |  |
| > 37 |  | 787 |  | Cn1cc(-c2nc(C3(c4ccc(-c5cnc(N)nc5)cn4)CCC3)no2)cn1 |  |
|  | 54 | 197 | < 0.3 | CC(C)[C@](C)(c1ccc(-c2cnc(N)nc2)nc1)c1noc(-c2cnn(CC(=O)N(C)C)c2)n1 | solubility [3]: Soluble; Kinetic_solubility [1]: Soluble |
|  | 16 | 72 | < 0.24 | CC1(O)CN(c2nc([C@@](C)(c3ccc(-c4cnc(N)nc4)cc3)C3CC3)no2)C1 | inhibition at 5 min, 11 µM [8]: 13%; solubility [3]: Soluble; Kinetic_solubility [1]: Soluble |
| 25 (≈ 60 µM) |  | 71 | < 0.24 | Nc1ncc(-c2ccc(C3(c4noc(-c5cnn(C6COC6)c5)n4)CCC3)cn2)cn1 | inhibition at 5 min, 11 µM [8]: < 10% |
| > 43 |  | 403 |  | CC(C)(CO)n1cc(-c2nc(C3(c4ccc(-c5cnc(N)nc5)nc4)CCC3)no2)cn1 |  |
| > 37 | 324 | 680 | 0.35 | Nc1ncc(-c2ccc(C3(c4noc(N5CCNCC5)n4)CCC3)cc2)cn1 | Ratio IC50 [7]: 2 |
|  | 12 | 58 | 0.52 | CN(C)C(=O)N1CCN(c2nc([C@@](C)(c3ccc(-c4cnc(N)nc4)cc3)C3CC3)no2)CC1 | inhibition at 5 min, 30 µM [9]: 36%; solubility [3]: Soluble; Kinetic_solubility [1]: Soluble |
|  | 8.1 | 19 | 0.57 | C[C@@](c1ccc(-c2cnc(N)nc2)nc1)(c1noc(-c2cnn(CC#N)c2)n1)C1CC1 | solubility [3]: Soluble; Kinetic_solubility [1]: Soluble |
| > 41 |  | 213 |  | COCCn1cc(-c2nc(C3(c4ccc(-c5cnc(N)nc5)nc4)CCC3)no2)cn1 |  |
| 27 (≈ 55.4 µM) |  | 262 |  | CN(C(=O)Cn1cc(-c2nc(C3(c4ccc(-c5cnc(N)nc5)nc4)CCC3)no2)cn1)C(C)(C)C |  |
| > 43 |  |  |  | CC(C)(O)Cn1cc(-c2nc(C3(c4ccc(-c5cnc(N)nc5)cc4)CCC3)no2)cn1 |  |
